In ChEMBL document CHEMBL1201862, “PubChem BioAssay data set” (2004):
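The compound was tested at five concentrations on cells cultured in 96-well plates, with a 48-hour exposure period. GI50 marks 50% less growth.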 The source made the active and inactive calls. No stated cut-off is given here; in the data, active = GI50 up to about 1.1 µM and inactive = higher.

What was measured:
Experiment in all cases: NCI tumour cell line growth inhibition, 48 h
EKVX = test system: EKVX
ACHN = test system: ACHN
HCC 2998 = test system: HCC 2998
NCI-H460 = test system: NCI-H460
HOP-62 = test system: HOP-62
NCI-H23 = test system: NCI-H23
SK-MEL-2 = test system: SK-MEL-2
COLO 205 = test system: COLO 205
SN12C = test system: SN12C
Hs-578T = test system: Hs-578T
MDA-MB-435 = test system: MDA-MB-435
KM12 = test system: KM12
SW-620 = test system: SW-620
SK-MEL-28 = test system: SK-MEL-28
BT-549 = test system: BT-549
MCF7 = test system: MCF7
UACC-62 = test system: UACC-62
MOLT-4 = test system: MOLT-4
SF-295 = test system: SF-295
Malme-3M = test system: Malme-3M
HCT-15 = test system: HCT-15
HT-29 = test system: HT-29
NCI/ADR-RES = test system: NCI/ADR-RES
SK-OV-3 = test system: SK-OV-3
OVCAR-8 = test system: OVCAR-8
SF-539 = test system: SF-539
SK-MEL-5 = test system: SK-MEL-5
U-251 = test system: U-251
UO-31 = test system: UO-31
CAKI-1 = test system: CAKI-1
A498 = test system: A498
IGROV-1 = test system: IGROV-1
HL-60 = test system: HL-60
K562 = test system: K562
NCI-H522 = test system: NCI-H522
HOP-92 = test system: HOP-92
RXF 393 = test system: RXF 393
OVCAR-4 = test system: OVCAR-4
SF-268 = test system: SF-268
OVCAR-5 = test system: OVCAR-5
HCT-116 = test system: HCT-116
NCI-H226 = test system: NCI-H226
PC-3 = test system: PC-3
SNB-19 = test system: SNB-19
DU-145 = test system: DU-145
MDA-N = test system: MDA-N
LOX IMVI = test system: LOX IMVI
TK-10 = test system: TK-10
A549 = test system: A549
T47D = test system: T47D
M14 = test system: M14
SR = test system: SR
UACC-257 = test system: UACC-257
MDA-MB-231 = test system: MDA-MB-231
786-0 = test system: 786-0
CCRF-CEM = test system: CCRF-CEM
OVCAR-3 = test system: OVCAR-3
SNB-75 = test system: SNB-75
RPMI-8226 = test system: RPMI-8226

C1=Cc2cccc3occ(c23)C=C1
GI50 (EKVX): 49.3 µM (inactive) | GI50 (ACHN): 58.1 µM (inactive) | GI50 (HCC 2998): 29 µM (inactive) | GI50 (NCI-H460): 41.3 µM (inactive) | GI50 (HOP-62): > 100 µM (inactive) | GI50 (NCI-H23): 84.5 µM (inactive) | GI50 (SK-MEL-2): > 100 µM (inactive) | GI50 (COLO 205): 29 µM (inactive) | GI50 (SN12C): > 100 µM (inactive) | GI50 (Hs-578T): 22.1 µM (inactive) | GI50 (MDA-MB-435): 82 µM (inactive) | GI50 (KM12): 43 µM (inactive) | GI50 (SW-620): 39.1 µM (inactive) | GI50 (SK-MEL-28): 47.2 µM (inactive) | GI50 (BT-549): 39.9 µM (inactive) | GI50 (MCF7): 31.8 µM (inactive) | GI50 (UACC-62): 39.3 µM (inactive) | GI50 (MOLT-4): 25.6 µM (inactive) | GI50 (SF-295): > 100 µM (inactive) | GI50 (Malme-3M): > 100 µM (inactive) | GI50 (HCT-15): 48 µM | GI50 (HT-29): 35.1 µM (inactive) | GI50 (NCI/ADR-RES): > 100 µM (inactive) | GI50 (SK-OV-3): > 100 µM (inactive) | GI50 (OVCAR-8): 46.8 µM (inactive) | GI50 (SF-539): 37.4 µM (inactive) | GI50 (SK-MEL-5): > 100 µM (inactive) | GI50 (U-251): 36.3 µM (inactive) | GI50 (UO-31): 41.8 µM (inactive) | GI50 (CAKI-1): > 100 µM (inactive) | GI50 (A498): > 100 µM (inactive) | GI50 (IGROV-1): 54.2 µM (inactive) | GI50 (HL-60): 20.4 µM (inactive) | GI50 (K562): 16.3 µM (inactive) | GI50 (NCI-H522): 33 µM (inactive) | GI50 (HOP-92): 91.8 µM (inactive) | GI50 (RXF 393): 25.8 µM (inactive) | GI50 (OVCAR-4): 56.9 µM (inactive) | GI50 (SF-268): > 100 µM (inactive) | GI50 (OVCAR-5): > 100 µM (inactive) | GI50 (HCT-116): 46.3 µM (inactive) | GI50 (NCI-H226): 24.1 µM (inactive) | GI50 (PC-3): 66.4 µM (inactive) | GI50 (SNB-19): 95.1 µM (inactive) | GI50 (DU-145): > 100 µM (inactive) | GI50 (MDA-N): > 100 µM (inactive) | GI50 (LOX IMVI): 17.9 µM (inactive) | GI50 (TK-10): 36 µM (inactive) | GI50 (A549): > 100 µM (inactive) | GI50 (T47D): 68.7 µM (inactive) | GI50 (M14): > 100 µM (inactive) | GI50 (SR): 15.8 µM (inactive) | GI50 (UACC-257): > 100 µM (inactive) | GI50 (MDA-MB-231): > 100 µM (inactive) | GI50 (786-0): 58.3 µM (inactive) | GI50 (CCRF-CEM): 20.5 µM (inactive) | GI50 (OVCAR-3): 31.2 µM (inactive)

Cc1cn(C2CC(Br)C(COC(c3ccccc3)(c3ccccc3)c3ccccc3)O2)c(=O)[nH]c1=O (stereo not given)
GI50 (EKVX): 14.5 µM (inactive) | GI50 (ACHN): 13.8 µM (inactive) | GI50 (HOP-62): 16.9 µM (inactive) | GI50 (NCI-H23): 7.4 µM (inactive) | GI50 (SK-MEL-2): 14.6 µM (inactive) | GI50 (COLO 205): 14 µM (inactive) | GI50 (SN12C): 14.7 µM (inactive) | GI50 (Hs-578T): 14.6 µM (inactive) | GI50 (MDA-MB-435): 14.7 µM (inactive) | GI50 (KM12): 6.71 µM (inactive) | GI50 (SW-620): 14.3 µM (inactive) | GI50 (SK-MEL-28): 16.7 µM (inactive) | GI50 (BT-549): 12 µM (inactive) | GI50 (MCF7): 10 µM (inactive) | GI50 (UACC-62): 12.2 µM (inactive) | GI50 (SNB-75): 11.5 µM (inactive) | GI50 (MOLT-4): 8.17 µM (inactive) | GI50 (SF-295): 9.68 µM (inactive) | GI50 (Malme-3M): 17.6 µM (inactive) | GI50 (HT-29): 10.9 µM (inactive) | GI50 (NCI/ADR-RES): 13.7 µM (inactive) | GI50 (OVCAR-8): 10.9 µM (inactive) | GI50 (SF-539): 17.2 µM (inactive) | GI50 (SK-MEL-5): 12.7 µM (inactive) | GI50 (U-251): 12.3 µM (inactive) | GI50 (UO-31): 6.71 µM (inactive) | GI50 (CAKI-1): 15.1 µM (inactive) | GI50 (RPMI-8226): 4.7 µM (inactive) | GI50 (A498): 15.3 µM (inactive) | GI50 (IGROV-1): 14.2 µM (inactive) | GI50 (HL-60): 4.76 µM (inactive) | GI50 (K562): 7.98 µM (inactive) | GI50 (NCI-H522): 7.24 µM (inactive) | GI50 (HOP-92): 11.2 µM (inactive) | GI50 (RXF 393): 11.2 µM (inactive) | GI50 (OVCAR-4): 13 µM (inactive) | GI50 (SF-268): 13.8 µM (inactive) | GI50 (OVCAR-5): 16.6 µM (inactive) | GI50 (HCT-116): 8.2 µM (inactive) | GI50 (NCI-H226): 19.2 µM (inactive) | GI50 (PC-3): 5.73 µM (inactive) | GI50 (SNB-19): 16.3 µM (inactive) | GI50 (DU-145): 14.5 µM (inactive) | GI50 (MDA-N): 14.9 µM (inactive) | GI50 (LOX IMVI): 11.9 µM (inactive) | GI50 (TK-10): 14.7 µM (inactive) | GI50 (A549): 10.5 µM (inactive) | GI50 (T47D): 12.3 µM (inactive) | GI50 (M14): 13.2 µM (inactive) | GI50 (SR): 5 µM (inactive) | GI50 (UACC-257): 16.1 µM (inactive) | GI50 (MDA-MB-231): 17.7 µM (inactive) | GI50 (786-0): 14.3 µM (inactive) | GI50 (CCRF-CEM): 4.88 µM (inactive) | GI50 (OVCAR-3): 12.6 µM (inactive)

N#Cc1cnn2ccn(C3OC(COC(=O)c4ccccc4)C(OC(=O)c4ccccc4)C3OC(=O)c3ccccc3)c12 (stereo not given)
GI50 (EKVX): > 21.5 µM (inactive) | GI50 (ACHN): > 21.5 µM (inactive) | GI50 (HCC 2998): > 21.5 µM (inactive) | GI50 (NCI-H460): > 21.5 µM (inactive) | GI50 (HOP-62): > 21.5 µM (inactive) | GI50 (NCI-H23): > 21.5 µM (inactive) | GI50 (COLO 205): > 21.5 µM (inactive) | GI50 (SN12C): > 21.5 µM (inactive) | GI50 (Hs-578T): 13.2 µM (inactive) | GI50 (MDA-MB-435): > 21.5 µM (inactive) | GI50 (KM12): 17.3 µM (inactive) | GI50 (SW-620): > 21.5 µM (inactive) | GI50 (SK-MEL-28): > 21.5 µM (inactive) | GI50 (BT-549): > 100 µM (inactive) | GI50 (MCF7): > 46.5 µM (inactive) | GI50 (UACC-62): > 21.5 µM (inactive) | GI50 (SNB-75): 1 µM (active) | GI50 (MOLT-4): > 21.5 µM (inactive) | GI50 (SF-295): > 21.5 µM (inactive) | GI50 (Malme-3M): > 21.5 µM (inactive) | GI50 (HCT-15): > 21.5 µM | GI50 (HT-29): > 21.5 µM (inactive) | GI50 (NCI/ADR-RES): > 21.5 µM (inactive) | GI50 (SK-OV-3): > 21.5 µM (inactive) | GI50 (OVCAR-8): > 46.5 µM (inactive) | GI50 (SF-539): > 21.5 µM (inactive) | GI50 (SK-MEL-5): > 21.5 µM (inactive) | GI50 (U-251): > 21.5 µM (inactive) | GI50 (UO-31): > 21.5 µM (inactive) | GI50 (CAKI-1): 17.2 µM (inactive) | GI50 (RPMI-8226): > 21.5 µM (inactive) | GI50 (A498): 20.5 µM (inactive) | GI50 (IGROV-1): > 21.5 µM (inactive) | GI50 (HL-60): > 21.5 µM (inactive) | GI50 (K562): > 21.5 µM (inactive) | GI50 (NCI-H522): > 21.5 µM (inactive) | GI50 (HOP-92): > 31.6 µM (inactive) | GI50 (RXF 393): > 21.5 µM (inactive) | GI50 (OVCAR-4): > 21.5 µM (inactive) | GI50 (SF-268): > 21.5 µM (inactive) | GI50 (OVCAR-5): > 21.5 µM (inactive) | GI50 (HCT-116): > 21.5 µM (inactive) | GI50 (NCI-H226): > 21.5 µM (inactive) | GI50 (PC-3): 5.56 µM (inactive) | GI50 (SNB-19): > 21.5 µM (inactive) | GI50 (DU-145): > 21.5 µM (inactive) | GI50 (MDA-N): > 21.5 µM (inactive) | GI50 (LOX IMVI): > 31.6 µM (inactive) | GI50 (TK-10): > 31.6 µM (inactive) | GI50 (A549): > 21.5 µM (inactive) | GI50 (T47D): 19.1 µM (inactive) | GI50 (M14): > 21.5 µM (inactive) | GI50 (SR): > 31.6 µM (inactive) | GI50 (UACC-257): > 21.5 µM (inactive) | GI50 (MDA-MB-231): > 21.5 µM (inactive) | GI50 (786-0): > 21.5 µM (inactive) | GI50 (CCRF-CEM): > 21.5 µM (inactive) | GI50 (OVCAR-3): > 21.5 µM (inactive)
